Assay results as given in PMC11992225, “Antibacterial compounds against non-growing and intracellular bacteria” (npj Antimicrobials and Resistance, 2025).
In brackets after ≈: the same amount, converted by molar mass. Several values for one entry are separate records, joined by “and”; a condition that tells them apart may be missing. Equal entries are not always repeated.

How the values were obtained:
[1] = tested on: non-growing P. aeruginosa DSM1117; assay: Dose-dependent killing analysis (CFU spot-plating) of stationary-phase P. aeruginosa; assay type: cell-based, Pseudomonas aeruginosa; settings: P. aeruginosa; for log10(CFU/ml) of treated nongrowing bacteria (single replicates): before treatment 8.887
In short: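 Viability by CFU: samples serially diluted 10-fold in PBS, spotted on LB agar, grown overnight at 37 °C, and colonies counted at the lowest resolvable dilution. Non-growing P. aeruginosa DSM1117 had been dosed for 24 h in 1:4 CA-MHB (pH 7.4); three biological replicates.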

non-growing UPEC CFT073 [2] = assay: Dilution-regrowth assay (screen, hit validation, dose-response) on stationary-phase UPEC; assay type: cell-based, Escherichia coli; settings: Escherichia coli; E. coli, pH 7.4; regrowth delay of non-growing bacteria, 1:4 CA-MHB, 24 h treatment, OD600 6 h after 2500-fold dilution; read-out: EC50
In short: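 Regrowth (OD600 after 6 h, 37 °C) of diluted non-growing CFT073, following 24 h compound treatment of 24 h stationary cultures, defines activity relative to untreated control. Screen at 20 µM, validation at 20, 10, 5 µM (duplicates), dose–response in three biological replicates fitted by five-parameter logistic.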

[3] = tested on: non-growing S. aureus DSM2569; assay: Dose-dependent killing analysis (CFU spot-plating) of stationary-phase S. aureus; assay type: cell-based, Staphylococcus aureus; settings: S. aureus; for log10(CFU/ml) of treated nongrowing bacteria (single replicates): before treatment 9,097
In short: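 Survival was scored as CFU after overnight growth at 37 °C on LB agar, using spots from 10-fold PBS dilutions of treated cultures. Non-growing S. aureus DSM2569 had been exposed to compound for 24 h in 1:4 CA-MHB, pH 7.4. Three biological replicates were run.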

non-growing UPEC CFT073 [4] = assay: Dose-dependent killing analysis (CFU spot-plating) of stationary-phase UPEC; assay type: cell-based, Escherichia coli
In short: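 Killing assessed by CFU counts: overnight 37 °C LB agar spot plates (10 μl drops of 10-fold PBS dilutions) scored at the lowest dilution with distinct colonies. Samples were compound-treated non-growing UPEC CFT073, 200 μl per well. Performed as three biological replicates.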

S. aureus DSM2569 = assay: MIC, standard microdilution assay, growing S. aureus; assay type: cell-based, Staphylococcus aureus; settings: Staphylococcus aureus, DSM2569; S. aureus; CA-MHB pH 7.4; read-out: MIC (μM) CA-MHB
In short: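 Medium: CA-MHB + 40 mM HEPES, pH 7.4 (UPEC, P. aeruginosa, S. aureus); LPM + 30 mM MES, pH 5.5 (UPEC, extra condition); TSB (S. flexneri). Microdilution format, n = 3.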

## O=C(O)c1cn(-c2ccc(F)cc2)c2cc(N3CCNCC3)c(F)cc2c1=O [Sarafloxacin]
[1]; drug concentration 0.1
  killing, average Δlog10(CFU/ml): 0.295 log10(CFU/ml)
  log10(CFU/ml) of treated nongrowing bacteria (single replicates): 8.699 log10(CFU/ml) and 8.903 log10(CFU/ml) and 8.176 log10(CFU/ml)
[1]; drug concentration 0.5
  killing, average Δlog10(CFU/ml): 1.719 log10(CFU/ml)
  log10(CFU/ml) of treated nongrowing bacteria (single replicates): 7.301 log10(CFU/ml) and 6.602 log10(CFU/ml) and 7.602 log10(CFU/ml)
[1]; drug concentration 2.5
  killing, average Δlog10(CFU/ml): 3.802 log10(CFU/ml)
  log10(CFU/ml) of treated nongrowing bacteria (single replicates): 5.301 log10(CFU/ml) and 5.176 log10(CFU/ml) and 4.778 log10(CFU/ml)
[1]; drug concentration 10
  killing, average Δlog10(CFU/ml): 4.887 log10(CFU/ml)
  log10(CFU/ml) of treated nongrowing bacteria (single replicates): =<4 log10(CFU/ml)
non-growing UPEC CFT073 [2]
  EC50: 1.72 µM
[3]; drug concentration 0.1
  killing, average Δlog10(CFU/ml): 0.203 log10(CFU/ml)
  log10(CFU/ml) of treated nongrowing bacteria (single replicates): 8.845 log10(CFU/ml) and 8.903 log10(CFU/ml) and 8.934 log10(CFU/ml)
[3]; drug concentration 0.5
  killing, average Δlog10(CFU/ml): 0.133 log10(CFU/ml)
  log10(CFU/ml) of treated nongrowing bacteria (single replicates): 8.869 log10(CFU/ml) and 9.111 log10(CFU/ml) and 8.914 log10(CFU/ml)
[3]; drug concentration 2.5
  killing, average Δlog10(CFU/ml): 0.565 log10(CFU/ml)
  log10(CFU/ml) of treated nongrowing bacteria (single replicates): 8.681 log10(CFU/ml) and 8.914 log10(CFU/ml) and 8.000 log10(CFU/ml)
[3]; drug concentration 10
  killing, average Δlog10(CFU/ml): 0.598 log10(CFU/ml)
  log10(CFU/ml) of treated nongrowing bacteria (single replicates): 8.462 log10(CFU/ml) and 8.653 log10(CFU/ml) and 8.380 log10(CFU/ml)
non-growing UPEC CFT073 [4]; E. coli in 1:4 CA-MHB (pH 7.4), drug concentration 0.25
  killing, average Δlog10(CFU/ml): 0.025 log10(CFU/ml)
non-growing UPEC CFT073 [4]; E. coli in 1:4 CA-MHB (pH 7.4), drug concentration 0.25, before treatment 8.977
  log10(CFU/ml) of treated nongrowing bacteria (single replicates): 9.301 log10(CFU/ml) and 8.477 log10(CFU/ml) and 9.079 log10(CFU/ml)
non-growing UPEC CFT073 [4]; E. coli in 1:4 CA-MHB (pH 7.4), drug concentration 0.5
  killing, average Δlog10(CFU/ml): 0.172 log10(CFU/ml)
non-growing UPEC CFT073 [4]; E. coli in 1:4 CA-MHB (pH 7.4), drug concentration 0.5, before treatment 8.977
  log10(CFU/ml) of treated nongrowing bacteria (single replicates): 9.000 log10(CFU/ml) and 8.954 log10(CFU/ml) and 8.462 log10(CFU/ml)
non-growing UPEC CFT073 [4]; E. coli in 1:4 CA-MHB (pH 7.4), drug concentration 1
  killing, average Δlog10(CFU/ml): 0.391 log10(CFU/ml)
non-growing UPEC CFT073 [4]; E. coli in 1:4 CA-MHB (pH 7.4), drug concentration 1, before treatment 8.977
  log10(CFU/ml) of treated nongrowing bacteria (single replicates): 9.114 log10(CFU/ml) and 8.532 log10(CFU/ml) and 8.114 log10(CFU/ml)
non-growing UPEC CFT073 [4]; E. coli in 1:4 CA-MHB (pH 7.4), drug concentration 2.5
  killing, average Δlog10(CFU/ml): 1.103 log10(CFU/ml)
non-growing UPEC CFT073 [4]; E. coli in 1:4 CA-MHB (pH 7.4), drug concentration 2.5, before treatment 8.977
  log10(CFU/ml) of treated nongrowing bacteria (single replicates): 8.398 log10(CFU/ml) and 7.903 log10(CFU/ml) and 7.322 log10(CFU/ml)
non-growing UPEC CFT073 [4]; E. coli in 1:4 CA-MHB (pH 7.4), drug concentration 5
  killing, average Δlog10(CFU/ml): 1.741 log10(CFU/ml)
non-growing UPEC CFT073 [4]; E. coli in 1:4 CA-MHB (pH 7.4), drug concentration 5, before treatment 8.977
  log10(CFU/ml) of treated nongrowing bacteria (single replicates): 7.491 log10(CFU/ml) and 7.176 log10(CFU/ml) and 7.041 log10(CFU/ml)
non-growing UPEC CFT073 [4]; E. coli in 1:4 CA-MHB (pH 7.4), drug concentration 10
  killing, average Δlog10(CFU/ml): 2.143 log10(CFU/ml)
non-growing UPEC CFT073 [4]; E. coli in 1:4 CA-MHB (pH 7.4), drug concentration 10, before treatment 8.977
  log10(CFU/ml) of treated nongrowing bacteria (single replicates): 7.279 log10(CFU/ml) and 6.845 log10(CFU/ml) and 6.380 log10(CFU/ml)
non-growing UPEC CFT073 [4]; E. coli in LPM (pH 5.5), drug concentration 0.25
  killing, average Δlog10(CFU/ml): 0.072 log10(CFU/ml)
non-growing UPEC CFT073 [4]; E. coli in LPM (pH 5.5), drug concentration 0.25, before treatment 7.350
  log10(CFU/ml) of treated nongrowing bacteria (single replicates): 7.079 log10(CFU/ml) and 6.477 log10(CFU/ml) and 8.279 log10(CFU/ml)
non-growing UPEC CFT073 [4]; E. coli in LPM (pH 5.5), drug concentration 0.5
  killing, average Δlog10(CFU/ml): 0.127 log10(CFU/ml)
non-growing UPEC CFT073 [4]; E. coli in LPM (pH 5.5), drug concentration 0.5, before treatment 7.350
  log10(CFU/ml) of treated nongrowing bacteria (single replicates): 6.778 log10(CFU/ml) (2×) and 8.114 log10(CFU/ml)
non-growing UPEC CFT073 [4]; E. coli in LPM (pH 5.5), drug concentration 1
  killing, average Δlog10(CFU/ml): 0.084 log10(CFU/ml)
non-growing UPEC CFT073 [4]; E. coli in LPM (pH 5.5), drug concentration 1, before treatment 7.350
  log10(CFU/ml) of treated nongrowing bacteria (single replicates): 6.477 log10(CFU/ml) and 7.146 log10(CFU/ml) and 8.176 log10(CFU/ml)
non-growing UPEC CFT073 [4]; E. coli in LPM (pH 5.5), drug concentration 2.5
  killing, average Δlog10(CFU/ml): 0.011 log10(CFU/ml)
non-growing UPEC CFT073 [4]; E. coli in LPM (pH 5.5), drug concentration 2.5, before treatment 7.350
  log10(CFU/ml) of treated nongrowing bacteria (single replicates): 7.114 log10(CFU/ml) and 7.000 log10(CFU/ml) and 7.903 log10(CFU/ml)
non-growing UPEC CFT073 [4]; E. coli in LPM (pH 5.5), drug concentration 5
  killing, average Δlog10(CFU/ml): -0.00245 log10(CFU/ml)
non-growing UPEC CFT073 [4]; E. coli in LPM (pH 5.5), drug concentration 5, before treatment 7.350
  log10(CFU/ml) of treated nongrowing bacteria (single replicates): 6.903 log10(CFU/ml) and 7.114 log10(CFU/ml) and 8.041 log10(CFU/ml)
non-growing UPEC CFT073 [4]; E. coli in LPM (pH 5.5), drug concentration 10
  killing, average Δlog10(CFU/ml): 0.353 log10(CFU/ml)
non-growing UPEC CFT073 [4]; E. coli in LPM (pH 5.5), drug concentration 10, before treatment 7.350
  log10(CFU/ml) of treated nongrowing bacteria (single replicates): 6.699 log10(CFU/ml) and 6.845 log10(CFU/ml) and 7.447 log10(CFU/ml)
S. aureus DSM2569
  MIC: 1 µM (≈ 0.385 µg/mL)
